This is an account of results in US20260241012A1, “1,8-NAPHTHYRIDIN-2-ONE HETEROBIFUNCTIONAL BCL6 DEGRADERS” (Treeline Biosciences, Inc., priority 2022, published 2026).

The test concerns the target T1, N-terminal HiBiT tagged BCL6 (Homo sapiens, UniProt P41182).
T1 construct: expressed in transfected cells; host or cells: HT1080 (ATCC CCL-121), stably transduced with lentivirus pLV-UBC-N-HiBiT-BCL6-PGK-puro
Description: HiBiT based degradation assay. It is filed as cell-based. To be noted: HT1080 cells expressing N-terminal HiBiT tagged BCL6, 5 hours of incubation; for Ymin (5 hr): BCL6 degradation normalized with DMSO control; for DC50: four-parameter logistic model, read-out: EC50 (5 hr). From the text:
Human BCL6 protein coding open reading frame fused with N-terminal HiBiT coding sequence was synthesized from Integrated DNA Technologies (IDT). Next, the N-HiBiT-BCL6 sequence was cloned into pLV-UBC-PGK-Puro, a lentivirus plasmid purchased from Vectorbuilder, to generate pLV-UBC-N-HiBiT-BCL6-PGK-puro. Lentiviral particles were generated from Lenti-X™ 293T cells (Clontech) by co-transfection of pLV-UBC-N-HiBiT-BCL6-PGK-puro plasmids and lentiviral packaging plasmid mix (Cellecta). HT1080 [HT1080] (ATCC CCL-121) cells were infected with the lentivirus, and HT1080 cells stably integrated with the lentiviral vectors were established by incubation with 1 μg/mL puromycin (Thermofisher).
HT1080 cells expressing N-terminal HiBiT tagged BCL6 were dispensed into a 384-well plate pre-spotted with compounds at varying concentrations. Five thousand cells were seeded into each well in 40 μL of RPMI 1640 media plus 10% Fetal Bovine Serum (10082-147, Thermofisher). After 5 hours of incubation at 37° C. with 5% CO2, 30 μL of the NANO-GLOR HiBiT Lytic Detection System working solution (Promega) was added to each well and incubated at room temperature for 15 min. After incubation, luminescence was read on a PHERAstar FSX Plate Reader (BMG). BCL6 degradation at each indicated concentration was normalized with DMSO control. The BCL6 degradation curves were plotted using a four-parameter logistic model.
In general terms: HiBiT is a short tag that completes a luciferase, so light tracks the accessible tagged protein.

With `CNC(=O)COc1cc2cc(Nc3nc(N4CC5(CC[C@@H](Nc6ccc7c(C8CCC(=O)NC8=O)nn(C)c7c6)[C@@H](C(F)(F)F)C5)C4)ncc3Cl)cnc2n(C(C)C)c1=O` (relative stereo) [Compound 221a, 2-((6-((5-chloro-2-((6S,7R)-7-((3-(2,6-dioxopiperidin-3-yl)-1-methyl-1H-indazol-6-yl)amino)-6-(trifluoromethyl)-2-azaspiro[3.5]nonan-2-yl)pyrimidin-4-yl)amino)-1-isopropyl-2-oxo-1,2-dihydro-1,8-naphthyridin-3-yl)oxy)-N-methylacetamide], the “Ymin (5 hr)” value is recorded as “++++ (Ymin < 30%)” and the DC50 is < 10 nM.

For `CNC(=O)COc1cc2cc(Nc3nc(N4CC5(CC[C@H](Nc6ccc7c(C8CCC(=O)NC8=O)nn(C)c7c6)[C@@H](C(F)(F)F)C5)C4)ncc3Cl)cnc2n(C(C)C)c1=O` (relative stereo) [Compound 221b, rel-2-((6-((5-chloro-2-((6S,7S)-7-((3-(2,6-dioxopiperidin-3-yl)-1-methyl-1H-indazol-6-yl)amino)-6-(trifluoromethyl)-2-azaspiro[3.5]nonan-2-yl)pyrimidin-4-yl)amino)-1-isopropyl-2-oxo-1,2-dihydro-1,8-naphthyridin-3-yl)oxy)-N-methylacetamide], the “Ymin (5 hr)” value was “++++ (Ymin < 30%)” and the DC50 was < 10 nM.

As for `CNC(=O)COc1cc2cc(Nc3nc(N4CC[C@@H](CN5CCN(c6cccc7c(C8CCC(=O)NC8=O)nn(C)c67)CC5)[C@H](F)C4)ncc3Cl)cnc2n(C(C)C)c1=O` (relative stereo) [Compound 238a, 2-((6-((5-chloro-2-((3S,4S)-4-((4-(3-(2,6-dioxopiperidin-3-yl)-1-methyl-1H-indazol-7-yl)piperazin-1-yl)methyl)-3-fluoropiperidin-1-yl)pyrimidin-4-yl)amino)-1-isopropyl-2-oxo-1,2-dihydro-1,8-naphthyridin-3-yl)oxy)-N-methylacetamide], the “Ymin (5 hr)” value is recorded as “++++ (Ymin < 30%)” and the DC50 fell in the range of 10 to 100 nM.

As for `CNC(=O)COc1cc2cc(Nc3nc(N4CC[C@H](CN5CCN(c6cccc7c(C8CCC(=O)NC8=O)nn(C)c67)CC5)[C@@H](F)C4)ncc3Cl)cnc2n(C(C)C)c1=O` (relative stereo) [Compound 238b, 2-((6-((5-chloro-2-((3R,4R)-4-((4-(3-(2,6-dioxopiperidin-3-yl)-1-methyl-1H-indazol-7-yl)piperazin-1-yl)methyl)-3-fluoropiperidin-1-yl)pyrimidin-4-yl)amino)-1-isopropyl-2-oxo-1,2-dihydro-1,8-naphthyridin-3-yl)oxy)-N-methylacetamide], the “Ymin (5 hr)” value is reported as “++++ (Ymin < 30%)” and the DC50 lay within 10 to 100 nM.

As for `CNC(=O)COc1cc2cc(Nc3nc(N4CC[C@H](CN5CCC(c6ccc7c(C8CCC(=O)NC8=O)nn(C)c7c6)CC5)[C@H](F)C4)ncc3Cl)cnc2n(C(C)C)c1=O` (relative stereo) [Compound 242a, 2-((6-((5-chloro-2-((3S,4R)-4-((4-(3-(2,6-dioxopiperidin-3-yl)-1-methyl-1H-indazol-6-yl)piperidin-1-yl)methyl)-3-fluoropiperidin-1-yl)pyrimidin-4-yl)amino)-1-isopropyl-2-oxo-1,2-dihydro-1,8-naphthyridin-3-yl)oxy)-N-methylacetamide], the “Ymin (5 hr)” value was “++++ (Ymin < 30%)” and the DC50 is < 10 nM.

Turning to `CNC(=O)COc1cc2cc(Nc3nc(N4CC[C@@H](CN5CCC(c6ccc7c(C8CCC(=O)NC8=O)nn(C)c7c6)CC5)[C@@H](F)C4)ncc3Cl)cnc2n(C(C)C)c1=O` (relative stereo) [Compound 242b, 2-((6-((5-chloro-2-((3R,4S)-4-((4-(3-(2,6-dioxopiperidin-3-yl)-1-methyl-1H-indazol-6-yl)piperidin-1-yl)methyl)-3-fluoropiperidin-1-yl)pyrimidin-4-yl)amino)-1-isopropyl-2-oxo-1,2-dihydro-1,8-naphthyridin-3-yl)oxy)-N-methylacetamide], the “Ymin (5 hr)” value is given as “++++ (Ymin < 30%)” and the DC50 was < 10 nM.
